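Following 48 hours of exposure in 96-well plates, responses at five concentrations were used to interpolate endpoints linearly. GI50 is the concentration that inhibits growth by half.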 Active and inactive are the calls of the source. Rule as the data show it: active = GI50 up to about 1.1 µM and inactive = higher.
Assays:
Assay in all cases: NCI tumour cell line growth inhibition, 48 h
NCI-H460 = test system: NCI-H460
OVCAR-8 = test system: OVCAR-8
SK-MEL-28 = test system: SK-MEL-28
SNB-75 = test system: SNB-75
HCT-15 = test system: HCT-15
EKVX = test system: EKVX
SK-MEL-2 = test system: SK-MEL-2
HT-29 = test system: HT-29
SF-268 = test system: SF-268
SK-OV-3 = test system: SK-OV-3
K562 = test system: K562
OVCAR-5 = test system: OVCAR-5
SW-620 = test system: SW-620
UO-31 = test system: UO-31
HCT-116 = test system: HCT-116
MDA-MB-231 = test system: MDA-MB-231
SF-539 = test system: SF-539
A498 = test system: A498
HOP-92 = test system: HOP-92
SR = test system: SR

Structure (SMILES) | GI50 (NCI-H460) | GI50 (OVCAR-8) | GI50 (SK-MEL-28) | GI50 (SNB-75) | GI50 (HCT-15) [µM] | GI50 (EKVX) | GI50 (SK-MEL-2) | GI50 (HT-29) | GI50 (SF-268) | GI50 (SK-OV-3) | GI50 (K562) | GI50 (OVCAR-5) | GI50 (SW-620) | GI50 (UO-31) | GI50 (HCT-116) | GI50 (MDA-MB-231) | GI50 (SF-539) | GI50 (A498) | GI50 (HOP-92) | GI50 (SR)
Nc1cc(O)c2c(c1O)C(=O)C=CC2=O | 9.57 µM (inactive) | 8.24 µM (inactive) | 17.7 µM (inactive) | 30.7 µM (inactive) | 7.41 | 17.9 µM (inactive) | 14 µM (inactive) | 4.55 µM (inactive) | 22.9 µM (inactive) | 47 µM (inactive) | 5.78 µM (inactive) | 20.8 µM (inactive) | 4.33 µM (inactive) | 10.9 µM (inactive) | 5.19 µM (inactive) | 13.6 µM (inactive) | 18.9 µM (inactive) | 22.2 µM (inactive) | 14.8 µM (inactive) | –
O=c1oc2ccc(Cl)cc2cc1C1=CSC2=NCCN12 | 30.3 µM (inactive) | 19.9 µM (inactive) | 27.9 µM (inactive) | 44.5 µM (inactive) | 18.9 | 20.6 µM (inactive) | 23.3 µM (inactive) | 18.8 µM (inactive) | 17.8 µM (inactive) | 38.1 µM (inactive) | 18.2 µM (inactive) | 50.5 µM (inactive) | 24.6 µM (inactive) | 20.7 µM (inactive) | 17.6 µM (inactive) | 20.4 µM (inactive) | 28.6 µM (inactive) | – | 22.1 µM (inactive) | 17.1 µM (inactive)
Cc1ccc2nc(CN(CCO)CCO)cc(=O)n2c1 | > 100 µM (inactive) | > 100 µM (inactive) | > 100 µM (inactive) | > 100 µM (inactive) | > 100 | > 100 µM (inactive) | > 100 µM (inactive) | > 100 µM (inactive) | > 100 µM (inactive) | > 100 µM (inactive) | > 100 µM (inactive) | > 100 µM (inactive) | > 100 µM (inactive) | > 100 µM (inactive) | > 100 µM (inactive) | > 100 µM (inactive) | > 100 µM (inactive) | – | > 100 µM (inactive) | > 100 µM (inactive)
O=c1cccc(C2CC(CO)C3CCCCN3C2)[nH]1 (centres undefined) | > 100 µM (inactive) | > 100 µM (inactive) | > 100 µM (inactive) | 86.9 µM (inactive) | > 100 | > 100 µM (inactive) | > 100 µM (inactive) | > 100 µM (inactive) | > 100 µM (inactive) | > 100 µM (inactive) | > 100 µM (inactive) | > 100 µM (inactive) | > 100 µM (inactive) | > 100 µM (inactive) | > 100 µM (inactive) | > 100 µM (inactive) | > 100 µM (inactive) | > 100 µM (inactive) | > 100 µM (inactive) | –
N#CSCc1cccc(Nc2cc(=O)[nH]c(=O)[nH]2)c1 | > 100 µM (inactive) | 72.1 µM (inactive) | 57.8 µM (inactive) | > 100 µM (inactive) | 56.6 | > 100 µM (inactive) | > 100 µM (inactive) | 37.2 µM (inactive) | 28.8 µM (inactive) | > 100 µM (inactive) | 30.5 µM (inactive) | > 100 µM (inactive) | 55.6 µM (inactive) | > 100 µM (inactive) | 40.6 µM (inactive) | > 100 µM (inactive) | 33 µM (inactive) | > 100 µM (inactive) | 14.8 µM (inactive) | –
COc1cc(-c2nc(SC)nc3c2CCc2ccccc2-3)cc(OC)c1OC | – | 50.6 µM (inactive) | > 100 µM (inactive) | > 100 µM (inactive) | – | 29.1 µM (inactive) | > 100 µM (inactive) | 50.1 µM (inactive) | 91.2 µM (inactive) | > 100 µM (inactive) | 22.3 µM (inactive) | > 100 µM (inactive) | > 100 µM (inactive) | 46.3 µM (inactive) | 47.8 µM (inactive) | 28.3 µM (inactive) | 83.4 µM (inactive) | > 100 µM (inactive) | > 100 µM (inactive) | –
CCC(=O)/C(=C\I)c1ccccc1 | 9.86 µM (inactive) | 2 µM (inactive) | 2.7 µM (inactive) | 1.52 µM (inactive) | 1.8 | 19.2 µM (inactive) | 2.1 µM (inactive) | 0.931 µM (active) | 16.7 µM (inactive) | 16.6 µM (inactive) | 0.796 µM (active) | 1.84 µM (inactive) | 1.58 µM (inactive) | 2.05 µM (inactive) | 1.79 µM (inactive) | 1.75 µM (inactive) | 18.1 µM (inactive) | 18.1 µM (inactive) | 2.16 µM (inactive) | –
COc1ccc(/C=C2\N=C(N3CCCC(CO)C3)NC2=O)cc1 (centres undefined) | – | > 100 µM (inactive) | > 100 µM (inactive) | > 100 µM (inactive) | > 100 | > 100 µM (inactive) | > 100 µM (inactive) | > 100 µM (inactive) | > 100 µM (inactive) | > 100 µM (inactive) | – | > 100 µM (inactive) | > 100 µM (inactive) | > 100 µM (inactive) | > 100 µM (inactive) | > 100 µM (inactive) | > 100 µM (inactive) | – | > 100 µM (inactive) | > 100 µM (inactive)
CCO/C=C(\C(=O)OC)S(=O)(=O)c1ccc(C)cc1 | > 100 µM (inactive) | > 100 µM (inactive) | > 100 µM (inactive) | > 100 µM (inactive) | > 100 | > 100 µM (inactive) | > 100 µM (inactive) | > 100 µM (inactive) | > 100 µM (inactive) | > 100 µM (inactive) | > 100 µM (inactive) | > 100 µM (inactive) | > 100 µM (inactive) | 61.7 µM (inactive) | > 100 µM (inactive) | > 100 µM (inactive) | > 100 µM (inactive) | – | > 100 µM (inactive) | > 100 µM (inactive)
COc1ccc(/N=C2\C(=N/c3ccc(OC)cc3)N(S(=O)(=O)c3ccccc3)C(=S)N2c2ccccc2)cc1 | > 100 µM (inactive) | > 100 µM (inactive) | > 100 µM (inactive) | > 100 µM (inactive) | > 100 | > 100 µM (inactive) | > 100 µM (inactive) | > 100 µM (inactive) | > 100 µM (inactive) | > 100 µM (inactive) | > 100 µM (inactive) | > 100 µM (inactive) | > 100 µM (inactive) | > 100 µM (inactive) | – | > 100 µM (inactive) | > 100 µM (inactive) | – | > 100 µM (inactive) | > 100 µM (inactive)
Oc1cccc(-c2cn3cc(Cl)ccc3n2)c1 | 34 µM (inactive) | 31.4 µM (inactive) | 59.8 µM (inactive) | – | 30.7 | 24.3 µM (inactive) | 38.8 µM (inactive) | 43.4 µM (inactive) | 55.1 µM (inactive) | 96.6 µM (inactive) | 42.1 µM (inactive) | 72.6 µM (inactive) | > 100 µM (inactive) | 36.7 µM (inactive) | 57.9 µM (inactive) | > 100 µM (inactive) | – | 45.3 µM (inactive) | 91.8 µM (inactive) | 47.2 µM (inactive)
COc1nc(=O)n(C2CC(F)C(CO)O2)cc1C (centres undefined) | > 100 µM (inactive) | > 100 µM (inactive) | > 100 µM (inactive) | – | > 100 | > 100 µM (inactive) | > 10 µM (inactive) | > 100 µM (inactive) | > 100 µM (inactive) | – | > 100 µM (inactive) | – | > 100 µM (inactive) | > 100 µM (inactive) | > 100 µM (inactive) | > 100 µM (inactive) | > 100 µM (inactive) | – | – | > 100 µM (inactive)
CCOC(=O)/C(C(=O)Nc1cccc(C(F)(F)F)c1)=C(/N)N1CCOCC1 | > 100 µM (inactive) | > 100 µM (inactive) | > 100 µM (inactive) | > 100 µM (inactive) | > 100 | > 100 µM (inactive) | > 100 µM (inactive) | > 100 µM (inactive) | > 100 µM (inactive) | > 100 µM (inactive) | > 100 µM (inactive) | > 100 µM (inactive) | > 100 µM (inactive) | – | > 100 µM (inactive) | > 100 µM (inactive) | > 100 µM (inactive) | > 100 µM (inactive) | > 100 µM (inactive) | –
C=CC1(c2ccc(OC)cc2)OCCCO1 | > 100 µM (inactive) | > 100 µM (inactive) | > 100 µM (inactive) | > 100 µM (inactive) | > 100 | 15 µM (inactive) | > 100 µM (inactive) | > 100 µM (inactive) | > 100 µM (inactive) | > 100 µM (inactive) | > 100 µM (inactive) | > 100 µM (inactive) | > 100 µM (inactive) | > 100 µM (inactive) | > 100 µM (inactive) | > 100 µM (inactive) | > 100 µM (inactive) | – | > 100 µM (inactive) | > 100 µM (inactive)
CC(=O)OCC1OC(OC2CC3C(C)(C)C(=O)CC[C@]3(C)C3CC[C@]45C[C@]4(CCC5[C@@H](C)CC(O)C(O)C(C)(C)O)[C@]23C)C(O)C(O)C1O (some centres undefined) | 13.6 µM (inactive) | 13.5 µM (inactive) | 3.24 µM (inactive) | 5.35 µM (inactive) | 17.6 | 16.3 µM (inactive) | 4.93 µM (inactive) | 4.23 µM (inactive) | 10.1 µM (inactive) | 15.5 µM (inactive) | 5.52 µM (inactive) | 16.7 µM (inactive) | 13.2 µM (inactive) | 18.2 µM (inactive) | 7.1 µM (inactive) | 6.44 µM (inactive) | 15.3 µM (inactive) | – | 3.18 µM (inactive) | 4.35 µM (inactive)

Source: ChEMBL document CHEMBL1201862, “PubChem BioAssay data set” (2004)
